Broadly, the MIC is the smallest concentration in the dilution series that meets the test's criterion for growth inhibition. The CC50 is the concentration giving 50% cytotoxicity.

Starred links: 1 amine or outer side, 2 acyl side, 3 side chain; linkers in the order of their positions; H or OH if unused. Non-standard residues stand in square brackets, D forms with d. Residues, ends and D or L forms follow the SMILES beside them. Groups on a side chain read outwards from the residue. εLys = N[C@@H](CCCCN[*:1])C(=O)[*:2]; Dab = NCC[C@H](N)C(=O)O

Series [1] has as its system Escherichia coli. The series is described as follows: Antimicrobial activity against Escherichia coli ATCC 25922 assessed as inhibition of visible microbial growth incubated for 18 hrs by broth microdilution method. In kind it is functional.
In another series the test system is Acinetobacter baumannii. As to the kind of experiment: Antimicrobial activity against multidrug resistant Acinetobacter baumannii assessed as inhibition of visible microbial growth incubated for 18 hrs by broth microdilution method. In kind it is functional. For orientation: Broth dilution looks for growth in wells or tubes with falling amounts of substance.
Series [2] relates to Escherichia coli. As to the kind of experiment: Antimicrobial activity against multidrug resistant Escherichia coli assessed as inhibition of visible microbial growth incubated for 18 hrs by broth microdilution method. Type of series: functional.
The test system of series [3] is Staphylococcus aureus. The series is described as follows: Antimicrobial activity against Staphylococcus aureus ATCC 29213 assessed as inhibition of visible microbial growth incubated for 18 hrs by broth microdilution method. In kind it is functional.
For the next series, the system named is Pseudomonas aeruginosa. As to the kind of experiment: Antimicrobial activity against multidrug resistant Pseudomonas aeruginosa assessed as inhibition of visible microbial growth incubated for 18 hrs by broth microdilution method. Type of series: functional.
Series [4] deals with Staphylococcus aureus. As to the kind of experiment: Antimicrobial activity against multidrug resistant Staphylococcus aureus assessed as inhibition of visible microbial growth incubated for 18 hrs by broth microdilution method. Type of series: functional.
The nature of series [5]: Cytotoxicity against human BEAS-2B cells assessed as inhibition of cell growth measured after 24 hrs by CCK-8 assay. In kind it is toxicity, cell-based. A general note: Formazan colour is commonly taken as a measure of viable cells.
Series [6] is described as follows: Cytotoxicity against HEK293T cells assessed as survival rate at 64 microg/ml measured after 24 hrs by CCK-8 assay relative to control. Type of series: toxicity, cell-based, HEK-293T. The note with it: human, at 64 µg/mL, read-out: Survival.
Series [7] can be described thus: Hemolytic activity in human red blood cell assessed as hemolysis at 128 microg/ml measured after 1 hrs by microplate reader assay relative to control. Type of series: toxicity, cell-based, Erythrocyte. The note with it: red blood cells, at 128 µg/mL, read-out: Activity.
A short description of series [8]: Cytotoxicity against human BEAS-2B cells assessed as survival rate at 64 microg/ml measured after 24 hrs by CCK-8 assay relative to control. To be noted: at 64 µg/mL, read-out: Survival. Type of series: toxicity, cell-based.
The nature of series [9]: Cytotoxicity against human LO2 cells assessed as survival rate at 64 microg/ml measured after 24 hrs by CCK-8 assay relative to control. Type of series: toxicity, cell-based, L02. The note with it: at 64 µg/mL, read-out: Survival.

For the molecule `CC(C)C[C@H](NC(=O)CN)C(=O)N[C@@H](CCCNC(=N)N)C(=O)N[C@H](CCCCN)C(=O)N[C@@H](Cc1c[nH]c2ccccc12)C(=O)N[C@@H](CC(C)C)C(=O)N[C@@H](CCCNC(=N)N)C(=O)N[C@@H](CCN)C(=O)N[C@@H](Cc1ccccc1)C(=O)N[C@@H](CCCCN)C(=O)N[C@@H](CCCCN)C(=O)N[C@@H](Cc1ccccc1)C(=O)N[C@@H](Cc1c[nH]c2ccccc12)C(=O)O`, the MIC in the series on Escherichia coli [1] was determined as 18.1 µM; in the series on Acinetobacter baumannii it was 4.5 µM; in the series with Escherichia coli [2], 9.1 µM; in the series on Staphylococcus aureus [3], 18.1 µM; in the series on Pseudomonas aeruginosa it was 4.5 µM; in the series with Staphylococcus aureus [4] it was 18.1 µM.
As to `CC(C)C[C@H](NC(=O)CN)C(=O)N[C@@H](CCCNC(=N)N)C(=O)N[C@@H](CCCCN)C(=O)N[C@@H](Cc1c[nH]c2ccccc12)C(=O)N[C@@H](CC(C)C)C(=O)N[C@@H](CCCNC(=N)N)C(=O)N[C@@H](CCCCN)C(=O)N[C@@H](Cc1ccccc1)C(=O)N[C@@H](CCCCN)C(=O)N[C@@H](CCN)C(=O)N[C@@H](Cc1ccccc1)C(=O)N[C@@H](Cc1c[nH]c2ccccc12)C(=O)O` (H-GLRKWLRKFK[Dab]FW-OH), the MIC with Escherichia coli [1] came to 9.1 µM; with Acinetobacter baumannii, 4.5 µM; in the series on Escherichia coli [2], 4.5 µM; with Staphylococcus aureus [3] it was 9.1 µM; in the series with Pseudomonas aeruginosa it was 4.5 µM; with Staphylococcus aureus [4] it was 18.1 µM.
As for `CC(C)C[C@H](NC(=O)CN)C(=O)N[C@@H](CCCNC(=N)N)C(=O)N[C@@H](CCCCN)C(=O)N[C@@H](Cc1c[nH]c2ccccc12)C(=O)N[C@@H](CC(C)C)C(=O)N[C@@H](CCCNC(=N)N)C(=O)N[C@@H](CCCCN)C(=O)N[C@@H](Cc1ccccc1)C(=O)N[C@@H](CCCCN)C(=O)NCCCC[C@H](N)C(=O)N[C@@H](Cc1ccccc1)C(=O)N[C@@H](Cc1c[nH]c2ccccc12)C(=O)O` (H-GLRKWLRKFK[εLys]FW-OH), the MIC in the series with Escherichia coli [1] came to 4.5 µM; in the series with Acinetobacter baumannii it was 17.9 µM; in the series on Escherichia coli [2], 35.7 µM; in the series on Staphylococcus aureus [3], 17.9 µM; in the series on Pseudomonas aeruginosa it was 8.9 µM; in the series with Staphylococcus aureus [4] it was 17.9 µM.
As to `CC(C)C[C@H](NC(=O)CN)C(=O)N[C@@H](CCCNC(=N)N)C(=O)N[C@@H](CCCCN)C(=O)N[C@@H](Cc1c[nH]c2ccccc12)C(=O)N[C@@H](CC(C)C)C(=O)N[C@@H](CCCNC(=N)N)C(=O)N[C@@H](CCCCN)C(=O)N[C@@H](Cc1ccccc1)C(=O)N[C@@H](CCN)C(=O)N[C@@H](CCCCN)C(=O)N[C@@H](Cc1ccccc1)C(=O)N[C@@H](Cc1c[nH]c2ccccc12)C(=O)O` (H-GLRKWLRKF[Dab]KFW-OH), the MIC amounted to 9.1 µM in the series with Escherichia coli [1]; 4.5 µM with Acinetobacter baumannii; 4.5 µM with Escherichia coli [2]; 18.1 µM in the series with Staphylococcus aureus [3]; 4.5 µM in the series on Pseudomonas aeruginosa; 18.1 µM in the series on Staphylococcus aureus [4].
Consider `CC(C)C[C@H](NC(=O)CN)C(=O)N[C@@H](CCCNC(=N)N)C(=O)N[C@@H](CCCCN)C(=O)N[C@@H](Cc1c[nH]c2ccccc12)C(=O)N[C@@H](CC(C)C)C(=O)N[C@@H](CCCNC(=N)N)C(=O)N[C@@H](CCCCN)C(=O)N[C@@H](Cc1ccccc1)C(=O)N[C@@H](CCN)C(=O)N[C@@H](CCN)C(=O)N[C@@H](Cc1ccccc1)C(=O)N[C@@H](Cc1c[nH]c2ccccc12)C(=O)O` (H-GLRKWLRKF[Dab][Dab]FW-OH), for which the minimum inhibitory concentration (MIC) in the series with Escherichia coli [1] came to 9.2 µM; in the series with Acinetobacter baumannii, 4.6 µM; with Escherichia coli [2], 9.2 µM; in the series on Staphylococcus aureus [3], 18.4 µM; in the series on Pseudomonas aeruginosa, 4.6 µM; in the series with Staphylococcus aureus [4] it was 9.2 µM.
With `CC(C)C[C@H](NC(=O)CN)C(=O)N[C@@H](CCCNC(=N)N)C(=O)N[C@@H](CCCCN)C(=O)N[C@@H](Cc1c[nH]c2ccccc12)C(=O)N[C@@H](CC(C)C)C(=O)N[C@@H](CCCNC(=N)N)C(=O)N[C@@H](CCCCN)C(=O)N[C@@H](Cc1ccccc1)C(=O)NCCCC[C@H](N)C(=O)N[C@@H](CCCCN)C(=O)N[C@@H](Cc1ccccc1)C(=O)N[C@@H](Cc1c[nH]c2ccccc12)C(=O)O` (H-GLRKWLRKF[εLys]KFW-OH), the MIC with Escherichia coli [1] was 8.9 µM; with Acinetobacter baumannii, 17.9 µM; in the series with Escherichia coli [2] it was 35.7 µM; with Staphylococcus aureus [3], 17.9 µM; in the series with Pseudomonas aeruginosa, 8.9 µM; in the series on Staphylococcus aureus [4] it was 17.9 µM.
For `CC(C)C[C@H](NC(=O)CN)C(=O)N[C@@H](CCCNC(=N)N)C(=O)N[C@@H](CCCCN)C(=O)N[C@@H](Cc1c[nH]c2ccccc12)C(=O)N[C@@H](CC(C)C)C(=O)N[C@@H](CCCNC(=N)N)C(=O)N[C@@H](CCN)C(=O)N[C@@H](Cc1ccccc1)C(=O)N[C@@H](CCN)C(=O)N[C@@H](CCN)C(=O)N[C@@H](Cc1ccccc1)C(=O)N[C@@H](Cc1c[nH]c2ccccc12)C(=O)O` (H-GLRKWLR[Dab]F[Dab][Dab]FW-OH), the MIC in the series on Escherichia coli [1] was determined as 9.4 µM; in the series on Acinetobacter baumannii, 4.7 µM; with Escherichia coli [2] it was 4.7 µM; in the series with Staphylococcus aureus [3], 4.7 µM; in the series on Pseudomonas aeruginosa, 4.7 µM; with Staphylococcus aureus [4] it was 9.4 µM.
Regarding `CC(C)C[C@H](NC(=O)CN)C(=O)N[C@@H](CCCNC(=N)N)C(=O)N[C@@H](CCCCN)C(=O)N[C@@H](Cc1c[nH]c2ccccc12)C(=O)N[C@@H](CC(C)C)C(=O)N[C@@H](CCCNC(=N)N)C(=O)NCCCC[C@H](N)C(=O)N[C@@H](Cc1ccccc1)C(=O)N[C@@H](CCCCN)C(=O)N[C@@H](CCCCN)C(=O)N[C@@H](Cc1ccccc1)C(=O)N[C@@H](Cc1c[nH]c2ccccc12)C(=O)O` (H-GLRKWLR[εLys]FKKFW-OH), the minimal inhibitory concentration (MIC) in the series with Escherichia coli [1] was determined as 17.9 µM; with Acinetobacter baumannii, 35.7 µM; in the series with Escherichia coli [2], 35.7 µM; in the series with Staphylococcus aureus [3], 35.7 µM; in the series on Pseudomonas aeruginosa it was 17.9 µM; in the series on Staphylococcus aureus [4], 35.7 µM.
As to `CC(C)C[C@H](NC(=O)CN)C(=O)N[C@@H](CCCNC(=N)N)C(=O)N[C@@H](CCN)C(=O)N[C@@H](Cc1c[nH]c2ccccc12)C(=O)N[C@@H](CC(C)C)C(=O)N[C@@H](CCCNC(=N)N)C(=O)N[C@@H](CCCCN)C(=O)N[C@@H](Cc1ccccc1)C(=O)N[C@@H](CCCCN)C(=O)N[C@@H](CCCCN)C(=O)N[C@@H](Cc1ccccc1)C(=O)N[C@@H](Cc1c[nH]c2ccccc12)C(=O)O` (H-GLR[Dab]WLRKFKKFW-OH), the MIC amounted to 9.1 µM with Escherichia coli [1]; 4.5 µM in the series on Acinetobacter baumannii; 9.1 µM with Escherichia coli [2]; 18.1 µM in the series on Staphylococcus aureus [3]; 4.5 µM in the series with Pseudomonas aeruginosa; 18.1 µM in the series on Staphylococcus aureus [4].
Regarding `CC(C)C[C@H](NC(=O)CN)C(=O)N[C@@H](CCN)C(=O)N[C@@H](CCN)C(=O)N[C@@H](Cc1c[nH]c2ccccc12)C(=O)N[C@@H](CC(C)C)C(=O)N[C@@H](CCN)C(=O)N[C@@H](CCN)C(=O)N[C@@H](Cc1ccccc1)C(=O)N[C@@H](CCN)C(=O)N[C@@H](CCN)C(=O)N[C@@H](Cc1ccccc1)C(=O)N[C@@H](Cc1c[nH]c2ccccc12)C(=O)O` (H-GL[Dab][Dab]WL[Dab][Dab]F[Dab][Dab]FW-OH), the CC50 at 24 h in series [5] was above 64 µg/mL. For the same molecule, the MIC in the series with Escherichia coli [1] amounted to 5.1 µM; with Acinetobacter baumannii it was 5.1 µM; in the series with Escherichia coli [2], 10.2 µM; with Staphylococcus aureus [3], 5.1 µM; in the series with Pseudomonas aeruginosa, 10.2 µM; in the series on Staphylococcus aureus [4], 5.1 µM. Moreover, the viability at 24 h, 64 µg/mL in [6], in [8] and in series [9] was above 80% throughout. Besides, the hemolysis at 1 h, 128 µg/mL in series [7] is below 10%.
`CC(C)C[C@H](NC(=O)CN)C(=O)N[C@@H](CCCNC(=N)N)C(=O)NCCCC[C@H](N)C(=O)N[C@@H](Cc1c[nH]c2ccccc12)C(=O)N[C@@H](CC(C)C)C(=O)N[C@@H](CCCNC(=N)N)C(=O)N[C@@H](CCCCN)C(=O)N[C@@H](Cc1ccccc1)C(=O)N[C@@H](CCCCN)C(=O)N[C@@H](CCCCN)C(=O)N[C@@H](Cc1ccccc1)C(=O)N[C@@H](Cc1c[nH]c2ccccc12)C(=O)O` (H-K([Arg-Leu-Gly])WLRKFKKFW-OH): the MIC in the series on Escherichia coli [1] came out at 8.9 µM; with Acinetobacter baumannii, 35.7 µM; in the series with Escherichia coli [2], 35.7 µM; with Staphylococcus aureus [3], 35.7 µM; with Pseudomonas aeruginosa, 8.9 µM; in the series with Staphylococcus aureus [4], 35.7 µM.
In the case of H-GLRKFLRKFKKFGK-OH, the MIC is 18.2 µM with Escherichia coli [1]; 36.5 µM in the series on Acinetobacter baumannii; 36.5 µM with Escherichia coli [2]; 36.5 µM in the series with Staphylococcus aureus [3]; 73 µM in the series on Pseudomonas aeruginosa; 73 µM in the series on Staphylococcus aureus [4].
As to H-GLRKFLRKFKKFWK-OH, the MIC worked out at 8.5 µM in the series on Escherichia coli [1]; 8.5 µM in the series with Acinetobacter baumannii; 17 µM in the series on Escherichia coli [2]; 34 µM in the series with Staphylococcus aureus [3]; 17 µM in the series with Pseudomonas aeruginosa; 34 µM with Staphylococcus aureus [4].
For the molecule H-GLRKRLRKFKKFGK-OH, the MIC with Escherichia coli [1] is 72.7 µM; in the series with Acinetobacter baumannii, 72.7 µM; in the series on Escherichia coli [2], 72.7 µM; with Staphylococcus aureus [3], 72.7 µM; in the series on Pseudomonas aeruginosa, above 72.7 µM; in the series with Staphylococcus aureus [4], above 72.7 µM.
In the case of H-GLRKWLRKFKKFWK-OH, the MIC in the series with Escherichia coli [1] was found to be 8.3 µM; in the series on Acinetobacter baumannii it was 8.3 µM; in the series with Escherichia coli [2] it was 8.3 µM; in the series with Staphylococcus aureus [3], 16.6 µM; in the series with Pseudomonas aeruginosa it was 8.3 µM; in the series with Staphylococcus aureus [4], 16.6 µM.
